By Kd is commonly meant the constant that tells how readily two partners part at equilibrium. Read a low Kd as tighter binding.

Results on 13 molecules are retold here after ChEMBL document CHEMBL3351755, “Elements and modulation of functional dynamics” (J Med Chem, 2014).

The target of assay [1] is T1, 6-phosphogluconolactonase (Trypanosoma brucei, UniProt Q9GRG6).
T1 sequence (Q9GRG6 whole entry): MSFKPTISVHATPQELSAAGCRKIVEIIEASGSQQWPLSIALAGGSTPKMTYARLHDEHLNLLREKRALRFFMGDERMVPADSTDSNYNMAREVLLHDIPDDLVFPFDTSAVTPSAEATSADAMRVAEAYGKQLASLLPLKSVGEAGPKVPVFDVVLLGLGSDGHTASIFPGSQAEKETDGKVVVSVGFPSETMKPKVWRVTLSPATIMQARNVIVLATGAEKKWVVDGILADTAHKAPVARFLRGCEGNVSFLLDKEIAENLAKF
Put plainly: Binding affinity to Trypanosoma brucei 6-phospho-gluconalactonase by NMR analysis.

A short description of assay [2]: Binding affinity to mouse major urinary protein by NMR analysis.
Assay [3] in a line: Binding affinity to hen egg-white lysozyme by NMR analysis. The arrangement: species or system Gallus gallus.
The target of another assay is Galectin-3 (Homo sapiens, UniProt P17931). As to the kind of experiment: Binding affinity to galectin-3 (unknown origin).
Chain of Galectin-3 (P17931 whole entry): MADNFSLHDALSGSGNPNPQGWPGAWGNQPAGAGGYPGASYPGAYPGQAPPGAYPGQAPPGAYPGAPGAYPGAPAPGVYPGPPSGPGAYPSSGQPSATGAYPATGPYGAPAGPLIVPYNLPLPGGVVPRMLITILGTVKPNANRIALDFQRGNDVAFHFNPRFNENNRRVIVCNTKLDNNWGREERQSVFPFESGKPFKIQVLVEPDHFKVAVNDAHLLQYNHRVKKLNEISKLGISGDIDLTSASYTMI
A short description of assay [4]: Binding affinity to oxalocrotonate tautomerase (unknown origin) by NMR analysis.
The nature of assay [5]: Binding affinity to ketosteroid isomerase (unknown origin) by NMR analysis.
A short description of assay [6]: Binding affinity to Escherichia coli glucose/galactose binding protein by NMR analysis.
Assay [7] is described as follows: Binding affinity to quail siderocalin Q83 by NMR analysis. The arrangement: species or system Galliformes.
A short description of assay [8]: Binding affinity to Escherichia coli ribose binding protein by NMR analysis.
In assay [9] the target is T2, Thiopurine S-methyltransferase (Homo sapiens, UniProt P51580).
T2 sequence (P51580 whole entry): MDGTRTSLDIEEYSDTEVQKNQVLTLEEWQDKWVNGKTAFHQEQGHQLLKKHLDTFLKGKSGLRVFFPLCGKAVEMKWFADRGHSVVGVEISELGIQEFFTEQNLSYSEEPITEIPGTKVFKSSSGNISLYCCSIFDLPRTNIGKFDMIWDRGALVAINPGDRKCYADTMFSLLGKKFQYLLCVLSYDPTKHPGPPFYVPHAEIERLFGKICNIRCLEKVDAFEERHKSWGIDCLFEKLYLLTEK
Put plainly: Binding affinity to thiopurine methyltransferase (unknown origin) by NMR analysis.

On to `O=C(O)[C@H](O)[C@@H](O)[C@H](O)[C@H](O)COP(=O)(O)O`, for which the Kd in [1] is 10 µM. Take `c1ccc(Nc2cccc3ccccc23)cc1`: in [2], the Kd amounted to 0.032 µM.

`N[C@H]1[C@H](O[C@H]2[C@H](O)[C@@H](N)[C@H](O[C@H]3[C@H](O)[C@@H](N)C(O)O[C@@H]3CO)O[C@@H]2CO)O[C@H](CO)[C@@H](O)[C@@H]1O` (stereo partly drawn) registered a Kd in assay [3] of 14 µM. For `CC(=O)N[C@H]1C(O)O[C@H](CO)[C@@H](O[C@@H]2O[C@H](CO)[C@H](O)[C@H](NC(=O)c3ccccc3)[C@H]2O)[C@@H]1O` (stereo partly drawn), the Kd on Galectin-3 is 18.2 µM. The same measure, in the same setting: as for `COc1c(F)c(F)c(C(=O)N[C@H]2[C@@H](O)[C@@H](CO)O[C@@H](O[C@H]3[C@H](O)[C@@H](NC(C)=O)C(O)O[C@@H]3CO)[C@@H]2O)c(F)c1F` (stereo partly drawn), the figure is 3.3 µM.

In [2], `CCC(C)C1=NCCS1` (stereo not drawn) gave a Kd of 0.9 µM. As to `CC1(C)SCN(C(=O)[C@@H](CS)Cc2ccccc2)[C@H]1C(=O)O`, the Kd in assay [4] stood at 590 µM.

In [5], `C[C@]12CC[C@H]3[C@@H](CCC4=CC(=O)CC[C@@H]43)[C@@H]1CC[C@@H]2O` gave a Kd of 5.5 µM. Molecule `COc1nccnc1CC(C)C` came in with a Kd in [2] of 0.3 µM.

As to `OC[C@H]1OC(O)[C@H](O)[C@@H](O)[C@@H]1O` (stereo partly drawn) [DEXTROSE], the Kd in assay [6] is 0.29 µM.

As to `O=C(N[C@H]1COC(=O)[C@@H](NC(=O)c2cccc(O)c2O)COC(=O)[C@@H](NC(=O)c2cccc(O)c2O)COC1=O)c1cccc(O)c1O` [ENTEROBACTIN], in assay [7], binding was characterised by a dissociation constant (Kd) of 0.0005 µM. The molecule `O[C@@H]1[C@H](O)[C@H](O)CO[C@H]1O` [RIBOSE (PYRANOSE)] registered a Kd in assay [8] of 0.17 µM. This lies in the sub-micromolar range. `Nc1ncnc2c1ncn2[C@@H]1O[C@H](C[C@@H](N)CC[C@H](N)C(=O)O)[C@@H](O)[C@H]1O` [SINEFUNGIN] gave a Kd in assay [9] of 10 µM.
